Laboratory results from PMC8970883, “Simultaneous Determination of Seven Phenolic Acids, Two Flavonoids, and Tussilagone in Rat Plasma after Administration of Farfarae Flos Extract by LC–MS/MS” (Evidence-based Complementary and Alternative Medicine : eCAM, 2022).

assay: Pharmacokinetic study in rats after intragastric administration of Farfarae Flos extract (plasma, LC-MS/MS); format: in vivo; conditions: male, rat, plasma, po, 3.9 g/kg, oral Farfarae Flos extract 3.9 g·kg^−1, mean ± SD
Text: A high-performance liquid chromatography instrument was used to separate three types of compounds (Agilent 1200 series, USA). The HPLC instrument is composed of four parts; a G1322A degasser, G1312A Bin Pump, G1367B auto-sampler, and G1316A thermostatic column compartment. Three types of compounds and three internal standards (ISs) were separated on an Eclipse Plus C18 (4.6 × 100 mm, 1.8 μm). The mobile phase was composed of formic acid aqueous solution (A) and formic acid methanol solution (B). The concentration of formic acid in both A and B solution was 0.1% (v/v). The gradient elution was as follows. The proportion of 10% B changes to 40% from 0 min to 3mins. 40% B changes to 90% from 16 to 18 min. B is maintained at 100% from 19 to 28 min. The flow rate, sample injected volume, and column temperature was 0.35 mL·min^−1, 10 μL, and 35°C, respectively.
Quantitative analysis of all samples was performed on Sciex API 3200 with an electrospray ionization (ESI) source. Analyst 1.6.2 workstation for instrument operation, data management, and data analysis were employed to analyze and process data (AB, Sciex). Ten analyzed compounds and three ISs were optimized during multiple reactions monitoring (MRM). […] MRM parameters of CCLA were set at 353.1-191.0. […] MRM parameters of IAB were set as 515.3-353.2 and MRM parameters of IAA were set at 515.2-353.0. MRM parameters of IAC and tussilagone were set as 515.3-352.9, 391.4-217.4, respectively.
Twenty male rats (4 months old, weight 240 ± 20 g) were obtained commercially from Vital River Laboratory Animal Company (Beijing, China). Before the pharmacokinetic experiments, they were free to eat food and drink water for one week for adapting to the environment when the dark light cycle was 12 hours, while the temperature was maintained at 25 ± 5°C. The animal experiments were guided and strictly approved by Tianjin Hospital animal ethics committee. They were fasted for 12 hours and could only drink freely water before intragastric administration of Farfarae Flos extract. Ten rats in each group were employed for eliminating data variation caused by different animal individuals. All rats in groups 1 and group 2 were orally administrated one time at two dosages of Farfarae Flos extract (carboxymethyl cellulose sodium salt (0.5%) was used to suspend the extract to prepare the administration solution 3.90 g·kg^−1 and 7.80 g·kg^−1), respectively. Rats were anesthetized with ether. The heparinized 1.5 mL polythene tube was used to collect bank plasma samples before administering dose of the extract. About 250 μL plasma samples were collected at each collecting points of 5 min, 10 min, 0.25 h, 0.50 h, 0.75 h, 1 h, 2 h, 4 h, 8 h, 12 h, 24 h, and 36 h via fossa orbitalis after dosing. All plasma samples from collecting points need to be centrifuged at 4,000 rpm for ten minutes. The supernatant fluid of centrifuged plasma samples was obtained and immediately stored at −20°C in a refrigerator until they were analyzed.
The maximum concentration (Cmax) and the time to reach the maximum concentration (Tmax) of ten target compounds were directly calculated by the real concentration-time data in the plasma. The data were expressed as mean ± SD.
Ten microliters of ISs solution (contained puerarin, ferulic acid, and artemisinin) and the plasma sample (100 μL) were added into a clean tube, and then acetonitrile (400 μL) was added to precipitate protein. After centrifugation at 14000 rpm for 10 minutes, a mild nitrogen flow was used to evaporate the liquid of the supernatant to dryness. Then, the residue was dissolved in methanol (100 μL). The solution was vortexed for 3 min, mixed for 3 minutes with ultrasound, and centrifuged for 10 min. Finally, the solution (10 μL) was used to detect concentration of ten target compounds in rat plasma.

| Cmax | Structure (SMILES) |
| --- | --- |
| 177 ± 131 ng/mL | O=C(/C=C/c1ccc(O)c(O)c1)O[C@H]1[C@H](O)C[C@](O)(C(=O)O)C[C@H]1O [CCLA, cryptochlorogenic acid] |

same assay, conditions: male, rat, plasma, po, 7.8 g/kg, oral Farfarae Flos extract 7.8 g·kg^−1, mean ± SD

| Cmax | Structure (SMILES) |
| --- | --- |
| > 1000 ng/mL | O=C(/C=C/c1ccc(O)c(O)c1)O[C@H]1[C@H](O)C[C@](O)(C(=O)O)C[C@H]1O [CCLA, cryptochlorogenic acid] |

same assay, conditions: male; rat plasma, oral Farfarae Flos extract 3.9 g·kg^−1, mean ± SD

| Tmax | half-life | Structure (SMILES) |
| --- | --- | --- |
| 0.64 ± 0.2 h | 1.03 ± 0.53 h | O=C(/C=C/c1ccc(O)c(O)c1)O[C@H]1[C@H](O)C[C@](O)(C(=O)O)C[C@H]1O [CCLA, cryptochlorogenic acid] |

same assay, conditions: male; rat plasma, oral Farfarae Flos extract 3.9 g·kg^−1, mean ± SD; read-out: MRT(0–24h)

| MRT last | Structure (SMILES) |
| --- | --- |
| 4.17 ± 1.73 h | O=C(/C=C/c1ccc(O)c(O)c1)O[C@H]1[C@H](O)C[C@](O)(C(=O)O)C[C@H]1O [CCLA, cryptochlorogenic acid] |

same assay, conditions: male; rat plasma, oral Farfarae Flos extract 3.9 g·kg^−1, mean ± SD; read-out: MRT(0–∞)

| MRT inf | Structure (SMILES) |
| --- | --- |
| 5.16 ± 2.01 h | O=C(/C=C/c1ccc(O)c(O)c1)O[C@H]1[C@H](O)C[C@](O)(C(=O)O)C[C@H]1O [CCLA, cryptochlorogenic acid] |

same assay, conditions: male; rat plasma, oral Farfarae Flos extract 7.8 g·kg^−1, mean ± SD

| Tmax | half-life | Structure (SMILES) |
| --- | --- | --- |
| 0.39 ± 0.2 h | 1.06 ± 0.58 h | O=C(/C=C/c1ccc(O)c(O)c1)O[C@H]1[C@H](O)C[C@](O)(C(=O)O)C[C@H]1O [CCLA, cryptochlorogenic acid] |

same assay, conditions: male; rat plasma, oral Farfarae Flos extract 7.8 g·kg^−1, mean ± SD; read-out: MRT(0–24h)

| MRT last | Structure (SMILES) |
| --- | --- |
| 5.02 ± 2.07 h | O=C(/C=C/c1ccc(O)c(O)c1)O[C@H]1[C@H](O)C[C@](O)(C(=O)O)C[C@H]1O [CCLA, cryptochlorogenic acid] |

same assay, conditions: male; rat plasma, oral Farfarae Flos extract 7.8 g·kg^−1, mean ± SD; read-out: MRT(0–∞)

| MRT inf | Structure (SMILES) |
| --- | --- |
| 6.23 ± 2.1 h | O=C(/C=C/c1ccc(O)c(O)c1)O[C@H]1[C@H](O)C[C@](O)(C(=O)O)C[C@H]1O [CCLA, cryptochlorogenic acid] |

same assay, conditions: rat plasma, oral Farfarae Flos extract 3.9 g·kg^−1, mean ± SD

| AUC(0–24h) | AUC(0–∞) | Structure (SMILES) |
| --- | --- | --- |
| 422.3 ± 210.5 ng/mL ∗ h | 585.7 ± 414.0 ng/mL ∗ h | O=C(/C=C/c1ccc(O)c(O)c1)O[C@H]1[C@H](O)C[C@](O)(C(=O)O)C[C@H]1O [CCLA, cryptochlorogenic acid] |

same assay, conditions: rat plasma, oral Farfarae Flos extract 7.8 g·kg^−1, mean ± SD

| AUC(0–24h) | AUC(0–∞) | Structure (SMILES) |
| --- | --- | --- |
| 1938 ± 1401 ng/mL ∗ h | 2019 ± 1397 ng/mL ∗ h | O=C(/C=C/c1ccc(O)c(O)c1)O[C@H]1[C@H](O)C[C@](O)(C(=O)O)C[C@H]1O [CCLA, cryptochlorogenic acid] |

assay: Stability of QC samples in rat plasma (24 h, freeze-thaw, 4 weeks); format: in vitro ADME; conditions: high concentration level (3000-30000 ng·mL^−1), 24 hours at 20°C, six replicates
Protocol: Stock solution of 10 analytical compounds (1.00 mg·mL^−1) and three internal standards (ISs) was dissolved in methanol and placed in the refrigerator before testing. Methanol was used to prepare ferulic acid (IS1), puerarin (IS2), and artemisinin (IS3) solutions to reach a concentration of 1 μg mL^−1, respectively. A specific volume of each analyte stock solution is mixed together to prepare the standard working solution containing 10 analytes with a concentration of 10 times at LLOQ and three levels (high, medium, and low). Quality control (QC) samples for methodological validation were prepared to obtain the final concentration by adding standard working solution (10 μL) into blank plasma samples (100 μL).
Four concentration levels of ICB and ICA were 4, 12, 400, and 12000 ng mL^−1, respectively. Four concentration levels of caffeic acid were 10, 30, 1000, and 30000 ng·mL^−1, respectively.
In the stability test, 24-hour stability (The samples were placed for 24 hours at 20°C and then measured), freeze-thaw cycles (The sample was injected after the temperature changing from −20°C to 20°C), and 4 weeks stability (The sample was determined after stored at −80°C for 4 weeks) of representative QC samples were all tested. All of them were assayed with six replicates.

| 24 h stability Remain (%) | Structure (SMILES) |
| --- | --- |
| 112% | O=C(/C=C/c1ccc(O)c(O)c1)O[C@H]1[C@H](O)C[C@](O)(C(=O)O)C[C@H]1O [CCLA, cryptochlorogenic acid] |

same assay, conditions: high concentration level (3000-30000 ng·mL^−1), freeze-thaw cycles −20°C to 20°C, six replicates

| Freeze-thaw stability, percent remaining | Structure (SMILES) |
| --- | --- |
| 93.2% | O=C(/C=C/c1ccc(O)c(O)c1)O[C@H]1[C@H](O)C[C@](O)(C(=O)O)C[C@H]1O [CCLA, cryptochlorogenic acid] |

same assay, conditions: high concentration level (3000-30000 ng·mL^−1), stored at −80°C for 4 weeks, six replicates

| Long stability Remain (%) | Structure (SMILES) |
| --- | --- |
| 95.9% | O=C(/C=C/c1ccc(O)c(O)c1)O[C@H]1[C@H](O)C[C@](O)(C(=O)O)C[C@H]1O [CCLA, cryptochlorogenic acid] |

same assay, conditions: low concentration level (3-30 ng·mL^−1), 24 hours at 20°C, six replicates

| 24 h stability Remain (%) | Structure (SMILES) |
| --- | --- |
| 98.4% | O=C(/C=C/c1ccc(O)c(O)c1)O[C@H]1[C@H](O)C[C@](O)(C(=O)O)C[C@H]1O [CCLA, cryptochlorogenic acid] |

same assay, conditions: low concentration level (3-30 ng·mL^−1), freeze-thaw cycles −20°C to 20°C, six replicates

| Freeze-thaw stability, percent remaining | Structure (SMILES) |
| --- | --- |
| 96.8% | O=C(/C=C/c1ccc(O)c(O)c1)O[C@H]1[C@H](O)C[C@](O)(C(=O)O)C[C@H]1O [CCLA, cryptochlorogenic acid] |

same assay, conditions: low concentration level (3-30 ng·mL^−1), stored at −80°C for 4 weeks, six replicates

| Long stability Remain (%) | Structure (SMILES) |
| --- | --- |
| 97.5% | O=C(/C=C/c1ccc(O)c(O)c1)O[C@H]1[C@H](O)C[C@](O)(C(=O)O)C[C@H]1O [CCLA, cryptochlorogenic acid] |

same assay, conditions: medium concentration level (100-1000 ng·mL^−1), 24 hours at 20°C, six replicates

| 24 h stability Remain (%) | Structure (SMILES) |
| --- | --- |
| 112% | O=C(/C=C/c1ccc(O)c(O)c1)O[C@H]1[C@H](O)C[C@](O)(C(=O)O)C[C@H]1O [CCLA, cryptochlorogenic acid] |

same assay, conditions: medium concentration level (100-1000 ng·mL^−1), freeze-thaw cycles −20°C to 20°C, six replicates

| Freeze-thaw stability, percent remaining | Structure (SMILES) |
| --- | --- |
| 82.9% | O=C(/C=C/c1ccc(O)c(O)c1)O[C@H]1[C@H](O)C[C@](O)(C(=O)O)C[C@H]1O [CCLA, cryptochlorogenic acid] |

same assay, conditions: medium concentration level (100-1000 ng·mL^−1), stored at −80°C for 4 weeks, six replicates

| Long stability Remain (%) | Structure (SMILES) |
| --- | --- |
| 98.6% | O=C(/C=C/c1ccc(O)c(O)c1)O[C@H]1[C@H](O)C[C@](O)(C(=O)O)C[C@H]1O [CCLA, cryptochlorogenic acid] |
